Molecular target: T1, human CRTH2 (Homo sapiens, UniProt Q9Y5Y4)
T1 construct: expressed in transfected cells; host or cells: L1.2 cells, pEAK expression vector, puromycin-selected
T1 sequence (Q9Y5Y4 1-395): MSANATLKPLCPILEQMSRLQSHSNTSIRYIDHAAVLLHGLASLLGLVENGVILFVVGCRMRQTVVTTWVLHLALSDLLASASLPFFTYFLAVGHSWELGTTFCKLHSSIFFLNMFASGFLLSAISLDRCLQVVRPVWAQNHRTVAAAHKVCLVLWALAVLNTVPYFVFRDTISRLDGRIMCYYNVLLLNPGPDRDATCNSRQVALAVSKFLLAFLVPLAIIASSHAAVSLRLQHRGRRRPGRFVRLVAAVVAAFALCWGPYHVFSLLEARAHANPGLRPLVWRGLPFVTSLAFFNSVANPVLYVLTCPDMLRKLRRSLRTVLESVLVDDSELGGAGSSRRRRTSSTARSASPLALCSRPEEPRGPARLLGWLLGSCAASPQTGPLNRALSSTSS
Experiment: Measurement of Ca2+ mobilization in the human CRTH2-transfected L1.2 cell line (Assay 1)
Format: cell-based
Conditions: PGD2-induced Ca2+ mobilization in CRTH2-transfected L1.2 cells; compounds as yielded by solid phase synthesis, purity about 40 to 90%; read-out: Activity class
Protocol: Human CRTH2 cDNA was amplified from human eosinophil cDNA with gene specific primers containing restriction sites for cloning into pEAK vector (Edge Bio Systems). The human CRTH2 cDNA was cloned into the mammalian expression vector pEAK. This expression plasmid (40 μg) was transfected into L1.2 cells, at a cell density of 1×10^7 cells/500 μl, by using electroporation apparatus (Gene Pulser II, BioRad) at 250V/1,000 μF. One day after the transfection, puromycin (1 μg/ml, Sigma) was added into the cell culture plates. Two weeks after the transfection, grown cells were picked up for further growth.
[Measurement of Ca^2+ Mobilization in the Human CRTH2-Transfected L1.2 Cell Line] (Assay 1)
Ca^2+ loading buffer was prepared by mixing 5 μl of Fluo-3AM (2 mM in DMSO, final 1 μM, Molecular Probes) and 10 μl of pluronic F-127 (Molecular Probes) and diluting the resulting mixture in 10 ml of Ca^2+ assay buffer (20 mM HEPES pH 7.6, 0.1% BSA, 1 mM probenecid, Hanks' solution). The CRTH2 transfected cells which were prepared in Example 1 were washed with PBS, resuspended in Ca^2+ loading buffer at 1×10^7 cells/ml, and incubated for 60 min at room temperature. After incubation, cells were washed and resuspended in Ca^2+ assay buffer, then dispensed into transparent-bottom 96-well plates (#3631, Costar) at 2×10^5 cells/well. Cells were incubated with various concentrations of test compound for 5 minutes at room temperature. The emitted 480 nm fluorescence was measured on FDSS6000, a Ca^2+-measurement apparatus (Hamamatsu Photonics, Hamamatsu, Japan).
Assay results in Assay 1 are shown in Examples and tables of the Examples below. The data corresponds to the compounds as yielded by solid phase synthesis and thus to levels of purity of about 40 to 90%. For practical reasons, the compounds are grouped in four classes of activity as follows: IC50=A(< or =)10 nM<B(< or =)100 nM<C(< or =)500 nM<D

| SMILES | IC50 [nM] |
| --- | --- |
| CN(CC(=O)N1CCCC1)c1nc(Cc2ccc(NC(=O)c3ccc4ccccc4c3)cc2)ncc1CC(=O)O [Example 2-3] | < 10 |
| CN(C)c1nc(Cc2ccc(NC(=O)c3ccc(Br)cc3)cc2)ncc1CC(=O)O [Example 2-16] | < 10 |
| CN(CC(=O)O)c1nc(Cc2ccc(NC(=O)c3ccc4ccccc4c3)cc2)nc(Cl)c1CC(=O)O [Example 3-2] | 10 to 100 |
| CN(C)c1nc(Cc2ccc(NC(=O)c3ccc4cc[nH]c4c3)cc2)nc(Cl)c1CC(=O)O [Example 3-8] | < 10 |
| CN(C)c1nc(Cc2ccc(NC(=O)c3ccc(S(N)(=O)=O)cc3)cc2)nc(Cl)c1CC(=O)O [Example 1-40] | 100 to 500 |
| O=C(O)Cc1c(Cl)nc(Cc2ccc(NC(=O)c3ccc4ccccc4c3)cc2)nc1N1CCC(O)C1 (stereo not shown) [Example 3-13] | < 10 |
| CN(CC(=O)NC1CCCC1)c1nc(Cc2ccc(NC(=O)Nc3ccc4ccccc4c3)cc2)nc(Cl)c1CC(=O)O [Example 4-4] | 10 to 100 |
| CC(c1ccc(NC(=O)c2ccc3ccccc3c2)cc1)c1ncc(CC(=O)O)c(N(C)C)n1 (stereo not shown) [Example 2-18] | < 10 |
| CN(CC(=O)NC1CCCC1)c1nc(Cc2ccc(NC(=O)Nc3ccccc3)cc2)nc(Cl)c1CC(=O)O [Example 4-1, {2-{4-[(Anilinocarbonyl)amino]benzyl}-4-chloro-6-[[2-(cyclopentylamino)-2-oxoethyl](methyl)amino]pyrimidin-5-yl}acetatic acid] | 10 to 100 |
| O=C(O)Cc1c(Cl)nc(Cc2ccc(NC(=O)c3ccc4ccccc4c3)cc2)nc1N1CCCC1 [Example 3-1, {4-Chloro-2-[4-(2-naphthoylamino)benzyl]-6-pyrrolidin-1-ylpyrimidin-5-yl}acetic acid] | < 10 |
| O=C(O)Cc1c(Cl)nc(Cc2ccc(NC(=O)c3ccc4ccccc4c3)cc2)nc1N1CCC[C@H]1C(=O)O [Example 3-14] | 10 to 100 |
| O=C(O)Cc1c(Cl)nc(Cc2ccc(NC(=O)c3ccc4ccccc4c3)cc2)nc1N1CC=CC1 [Example 3-10] | < 10 |
| CN(CC(=O)NC1CCCC1)c1nc(Cc2ccc(NC(=O)c3ccc4ccccc4c3)cc2)ncc1CC(=O)O [Example 2-2] | < 10 |
| CSc1ccc(C(=O)Nc2ccc(Cc3nc(Cl)c(CC(=O)O)c(N4CCCC4)n3)cc2)cc1 [Example 3-15] | < 10 |
| COc1ccc(C(=O)Nc2ccc(Cc3nc(Cl)c(CC(=O)O)c(N4CCCC4)n3)cc2)cc1Cl [Example 3-16] | < 10 |
| CCN(C)c1nc(Cc2ccc(NC(=O)c3ccc4ccccc4c3)cc2)nc(Cl)c1CC(=O)O [Example 3-12] | < 10 |
| O=C(O)Cc1c(Cl)nc(Cc2ccc(NC(=O)c3ccc4ccccc4c3)cc2)nc1N1CCOCC1 [Example 3-6] | < 10 |

| SMILES | IC50 [nM] |
| --- | --- |
| CN(CC(=O)NC1CCCC1)c1nc(Cc2ccc(NC(=O)c3ccccc3)cc2)ncc1CC(=O)O [Example 2-4] | 10 to 100 |
| CN(C)c1nc(Cc2ccc(NC(=O)c3ccc4ccccc4c3)cc2)nc(Cl)c1CC#N [Example 12, N-(4-{[4-Chloro-5-(cyanomethyl)-6-(dimethylamino)pyrimidin-2-yl]methyl}phenyl)-2-naphthamide] | 100 to 500 |
| CC(C)N(C)c1nc(Cc2ccc(NC(=O)c3ccc4ccccc4c3)cc2)nc(Cl)c1CC(=O)O [Example 3-4] | < 10 |
| O=C(O)Cc1c(Cl)nc(Cc2ccc(NC(=O)c3ccc4ccccc4c3)cc2)nc1N1CCCCC1 [Example 3-7] | < 10 |
| CN(Cc1ccccc1)C(=O)Nc1ccc(Cc2ncc(CC(=O)O)c(N(C)C)n2)cc1 [Example 4-6] | 100 to 500 |
| CN(CC(=O)NC1CCCC1)c1nc(Cc2ccc(NC(=O)NCCc3ccccc3)cc2)nc(Cl)c1CC(=O)O [Example 4-3] | 10 to 100 |
| CN(CC(=O)NC1CCCC1)c1nc(Cc2ccc(NC(=O)/C=C/c3ccccc3)cc2)ncc1CC(=O)O [Example 2-5] | < 10 |
| CN(C)c1nc(Cc2ccc(NC(=O)/C=C/c3ccc(C(F)(F)F)cc3)cc2)ncc1CC(=O)O [Example 2-17] | < 10 |
| CN(C)c1nc(Cc2ccc(NC(=O)c3ccc(OC(F)(F)F)cc3)cc2)ncc1CC(=O)O [Example 2-19] | < 10 |
| CN(c1nc(Cc2ccc(NC(=O)c3ccc4ccccc4c3)cc2)nc(Cl)c1CC(=O)O)C1CCCCC1 [Example 3-3] | < 10 |
| COc1nc(Cc2ccc(NC(=O)c3ccc4ccccc4c3)cc2)nc(Cl)c1CC(=O)O [Example 3-9] | < 10 |
| CN(CC(=O)NC1CCCC1)c1nc(Cc2ccc(NC(=O)NCc3ccccc3)cc2)nc(Cl)c1CC(=O)O [Example 4-2] | 10 to 100 |
| CCN(CC)c1nc(Cc2ccc(NC(=O)c3ccc4ccccc4c3)cc2)nc(Cl)c1CC(=O)O [Example 3-11] | 10 to 100 |
| CN(C)c1nc(Cc2ccc(NC(=O)c3ccc(F)cc3)cc2)ncc1CC(=O)O [Example 2-20] | 10 to 100 |
| CN(C)c1nc(Cc2ccc(NC(=O)c3ccc(Cl)cc3)cc2)ncc1CC(=O)O [Example 2-6] | < 10 |
| CN(C)c1nc(Cc2ccc(NC(=O)NCc3ccccc3)cc2)ncc1CC(=O)O [Example 4-5] | 10 to 100 |
| COc1cccc(C(=O)Nc2ccc(Cc3ncc(CC(=O)O)c(N(C)C)n3)cc2)c1 [Example 2-14] | 10 to 100 |

The next lines start with the values.

| IC50 [nM] | SMILES |
| --- | --- |
| < 10 | CN(C)c1nc(Cc2ccc(NC(=O)c3ccc(Cl)c(Cl)c3)cc2)nc(N(C)C)c1CC(=O)O [Example 7-6] |
| 10 to 100 | CN(C)c1nc(Cc2ccc(NC(=O)c3ccc4ccccc4c3)cc2)nc(N2CCOCC2)c1CC(=O)O [Example 7-1, {4-(Dimethylamino)-6-morpholin-4-yl-2-[4-(2-naphthoylamino)benzyl]pyrimidin-5-yl}acetic acid] |
| < 10 | Cc1nc(Cc2ccc(NC(=O)c3ccc4ccccc4c3)cc2)nc(N(C)C)c1CC(=O)O [Example 8-3] |
| < 10 | Cc1nc(Cc2ccc(NC(=O)c3ccc4ccccc4c3)cc2)nc(N2CCCC2)c1CC(=O)O [Example 8-1, {4-Methyl-2-[4-(2-naphthoylamino)benzyl]-6-pyrrolidin-1-ylpyrimidin-5-yl}acetic acid] |
| > 500 | CCCCCCCNc1ccc(Cc2nc(Cl)c(CC(=O)O)c(N(C)CC(=O)NC3CCCC3)n2)cc1 [Example 5-5] |
| > 500 | CN(C)c1nc(Cc2ccc(N(C)C(=O)c3ccc4ccccc4n3)cc2)nc(Cl)c1CC(=O)O [Example 6-3] |
| > 500 | CN(CC(=O)NC1CCCC1)c1nc(Cc2ccc(NCC3CCCCC3)cc2)nc(Cl)c1CC(=O)O [Example 5-1, {4-Chloro-2-{4-[(cyclohexylmethyl)amino]benzyl}-6-[[2-(cyclopentylamino)-2-oxoethyl](methyl)amino]pyrimidin-5-yl}acetic add] |
| < 10 | CN(C)c1nc(Cc2ccc(NC(=O)/C=C/c3ccccc3)cc2)nc(N(C)C)c1CC(=O)O [Example 7-7] |
| 100 to 500 | CN(CC(=O)NC1CCCC1)c1nc(Cc2ccc(NC/C=C/c3ccccc3)cc2)nc(Cl)c1CC(=O)O [Example 5-4] |
| < 10 | Cc1nc(Cc2ccc(NC(=O)/C=C/c3ccccc3)cc2)nc(N(C)C)c1CC(=O)O [Example 8-5] |
| 10 to 100 | CN(C)c1nc(Cc2ccc(NC(=O)OCc3ccc([N+](=O)[O-])cc3)cc2)ncc1CC(=O)O [Example 9-4] |
| < 10 | Cc1nc(Cc2ccc(NC(=O)c3ccc(Cl)c(Cl)c3)cc2)nc(N(C)C)c1CC(=O)O [Example 8-4] |
| 100 to 500 | CN(C)c1nc(Cc2ccc(N(C)C(=O)c3ccc(Cl)cc3)cc2)nc(Cl)c1CC(=O)O [Example 6-1, [4-Chloro-2-{4-[(4-chlorobenzoyl)(methyl)amino]benzyl}-6-(dimethylamino)pyrimidin-5-yl]acetic acid] |
| 10 to 100 | CN(C)c1nc(Cc2ccc(NC(=O)c3ccc4ccccc4c3)cc2)nc(N2CCCC2)c1CC(=O)O [Example 7-4] |
| < 10 | Cc1nc(Cc2ccc(NC(=O)c3ccc(Cl)c(Cl)c3)cc2)nc(N2CCCC2)c1CC(=O)O [Example 8-2] |
| 10 to 100 | CN(C)c1nc(Cc2ccc(NC(=O)c3ccc4ccccc4c3)cc2)nc(N(C)C)c1CC(=O)O [Example 7-3] |
| 10 to 100 | CN(C)c1nc(Cc2ccc(NC(=O)c3ccc4ccccc4c3)cc2)nc(N2CCCCC2)c1CC(=O)O [Example 7-5] |
| > 500 | CN(C)c1nc(Cc2ccc(N(C)C(=O)/C=C/c3ccccc3)cc2)nc(Cl)c1CC(=O)O [Example 6-2] |

Reference: patent US7960393B2, “Pyrimidine derivatives useful for the treatment of diseases mediated by CRTH2” (Actimis Pharmaceuticals, Inc., priority 2002, dated 2011)
